Results from patent US6476203B1, “Safe pharmaceutical composition for treating and preventing infertility and increasing immune function” (priority 2002, dated 2002).
Marks after values point to notes of the source that are not given here.

Key:
[1] = test system: Lipoperoxides; experiment: Effect on peroxidation (hepatic lipoperoxide content); assay type: in vivo
Protocol: The animal experiments were performed as previously described. Hepatic lipoperoxide content was determined. In the present study, the effect of SCS on lipoperoxides was examined. It is known that the pathogenesis of CCl4—induced hepatic damage involved reactive oxidant species increasing from the metabolism. The liver injure caused by CCl4 is due to the formation of a reactive toxic metabolite by the hepatic cytochrome P-450 system.

[2] = test system: human blood lymphocytes; experiment: Effects of ICN on immune function of human blood lymphocytes (3H-TdR incorporation); assay type: cell-based; settings: for CPM (3H-TdR incorporation into lymphocytes): ICN added to culture medium
Protocol: 2 ml of venous blood, heparinized was obtained from each of the participants. […] MEM was supplemented with 0.125 ml of heat-inactivated fetal calf serum, 100 units of Penicillin and 0.1 mg of streptomycin per ml of medium. Culture medium was divided into treated (ICN) and control group. ICN was added to the culture medium of treatment group. […] The ^3H-thymidine (^3H-TdR) was added into all the cultures (2 μci/ml) for last 12 hours of culture. The cells were harvested on 0.45 μm filters, washed with phosphate buffer (ph 7.4) and bleached with H2O2. The filters were then dried and the incorporation of ^3H-TdR into lymphocytes cell was measured by scintillation counter.

[3] = test system: white blood cells; experiment: Effect of ICN on white blood cells in rats treated by cyclophosphamide; assay type: in vivo
Text: Action of ICN and cyclophosphamide on white blood cells was investigated by means of white blood cells assay. […] Method of testing in animal is standard. The dosage of ICN and cyclophosphamide is the same as in above examples. Time of treatment is 10 days.

[4] = test system: lymphocytes; experiment: Effect of ICN on lymphoblastoid transformation (3H-TdR liquid scintillation); assay type: in vivo, mice; settings: 3H-TdR uptake, PHA-stimulated lymphocytes
Protocol: (1) Experimental procedure of animal is the same as in Example 2.
(2) Lemphoblastoid transformation test:
I. Reagents and conditions for cell culture
a. Culture media—RPMI 1640, medium 199 minimal essential medium (Eagle).
b. Buffer—Hepes buffer, the final concentration at 37° C. was 25 mM, to maintain the pH of the medium at 7.31.
c. Serum—generally 15-205 fetal bovine serum was incorporated, for lymphocytes from mice, 5% was used.
d. Gaseous phase—5% CO2 in air.
e. Cell concentration—generally 1-2 c 10^6/ml.
f. Stimulants—20μl/ml for phytohemagglutinin containing polysaccharide (PHA-M) or 10 μl/ml for polysaccharide-free purified phytohemagglutinin (PHA-P).
II. Measured by liquid scintillation
a. The conditions of cell culture are same as above. ^3H-TdR was added after 48 hours of incubation at a final concentration of 1 μCi/ml and continued the incubation for 24 hours.
b. Washed the cells twice with cold normal saline and the erythrocytes were lysed. The intact lymphocytes were again washed once with cold saline. Spun down the lymphocytes and added 2 ml of 10% trichloroacetic acid to precipitate the protein. Washed twice with normal saline. Added 2 ml of ethanol:ether (1:1) to wash once. 0.2 ml of formic acid was then added for digestion till the precipitate was dissolved.
c. Added 4 ml of scintillation fluid to 0.1 ml of the final sample and counted in a liquid scintillation counter.

[5] = test system: male mice; experiment: Effect of ICN on sexual behavior (ejaculation experiments); assay type: in vivo
Text: Selected 50 mice including male: 28-32g and female: 24-26g. The age of mice is over 8 weeks. The mice were divided normal group, suspend-loaded group, large dosage of ICN group, small dosage of ICN group and positive control group. The index of major sexual behaviors of male mice is ejaculation experiments operated on 15th day.

[6] = test system: peritoneal macrophage; experiment: Effect of ICN on phagocytosis of peritoneal macrophage; assay type: in vivo; settings: mice, ICN 5.5 mg/kg i.p. daily for 5 days, cyclophosphamide 4.5 mg/kg; macrophages with phagocytized chick red blood cells per 100 macrophages
Protocol: The control mice were injected with same volume of normal saline. These injections were repeated daily for 5 days, both treated and control group were injected intraperitoneally with cyclosphosphamide. The dosage of cyclophosphamide is 4.5 mg/kg. The same experimental procedure for example 3, 4 and 5 in testing mice were used. Added 0.02 ml of 5% washed chick red blood cell suspension to 0.5 ml of the peritoneal exudates. Shook gently to mix and incubate at 37° C. for 5 minutes. Dipped two cover slips, closed to each other, in the above mixture and incubated for 30 minutes for the migration of the macrophages along the cover slips, fixed and stained with Sharma stain. Examined microscopically for: Phagocytic rate—number of macrophages with phagocytized chick red blood cells per 100 macrophages counted. Method of animal model is regular.

[7] = test system: testosterone; experiment: Effect of ICN on testosterone (radioimmune method); assay type: in vivo, Wistar male rats
Protocol: Thirty normal Wistar male rats weighing 280+20 g were selected.
The rats were killed 30th days after the administration. The testosterone level of the rats in various groups was determined by using radioimmune method. The index of testis was determined. Control group was pathological model group. In control group, rats treated by cyclophosphamide (CYE). Rats treated by ICN+CYE in treatment group.

[8] = test system: bone marrow stem cells (CFU-S); experiment: Effects of ICN on hemopoietic system (spleen colony assay); assay type: in vivo, mice
Text: With increased cells in bone-marrow (BMC), endogenous colonies in spleen and higher ^3H-TdR uptake in marrow and spleen. The level of serum colony stimulating factor (CSF) increased after injection.

[9] = test system: interleukin-2 (rIL-2); experiment: Effect of ICN on interleukin-2 (rIL-2); assay type: in vivo; settings: treatment group
Text: The methods of determination rIL-2 were regular.

[10] = mice treated by cyclophosphamide

With Icariin [ICN] the Lipoperoxides ([1]; 1 h) was 0.75 ± 0.08 mmol MDA/g liver protein, the Lipoperoxides ([1]; 3 h) was 0.70 ± 0.07 mmol MDA/g liver protein and the Lipoperoxides ([1]; 6 h) was 0.80 ± 0.9 mmol MDA/g liver protein. The Lipoperoxides ([1]; 12 h) was 0.70 ± 0.9 mmol MDA/g liver protein, the Lipoperoxides ([1]; 24 h) was 1.0 ± 0.12 mmol MDA/g liver protein and the “CPM (3H-TdR incorporation into lymphocytes)” value ([2]; Old (n = 20)) was 2500 ± 350 CPM. For the same substance, the “CPM (3H-TdR incorporation into lymphocytes)” value ([2]; Young (n = 20)) was 8155 ± 986 CPM, the “human immune function (in words)” value ([2]; summary of Table 5-10) was “increase human immune function significantly” and the “protection of white blood cells from killing effect of cyclophosphamide” value ([3]; rats) was “protected”. The “White blood cells × 10^3/cm^3 ± SD” value ([3]; rats treated by cyclophosphamide, 10 days treatment) was 12.8 ± 2.0* 10^3/cm^3, the “CPM ± SD (lymphoblastoid transformation)” value [4] was 1150 ± 120 CPM and the Ejaculation proportion ([5]; male mice, 15th day) was 93%. For the same substance, the “treatment of infertility (in words)” value ([5]; summary of Table 4) was “marked efficiency”, the “Phagocytic (rate ± SD)” value [6] was 28.5 ± 3.0 and the Testosterone level ([7]; rats treated by ICN+CYE (cyclophosphamide), killed 30th day after administration, X ± SD) was 154.6 ± 19.8 ng/dL. For the same substance, the “level of testosterone (in words)” value ([7]; summary of Table 1) was “increase the level of testosterone significantly”, the “protection of stem cells of bone marrow from killing effect of cyclophosphamide” value ([8]; mice) was “protected” and the “3H-TdR uptake in marrow and spleen” value [8, 10] was “higher”. The “cells in bone-marrow (BMC)” value [8, 10] was “increased”, the “endogenous colonies in spleen” value [8, 10] was “increased” and the “recovery rate of hemopoieses” value [8, 10] was “markedly improve”. For the same substance, the “Mean (CFU-S ± SD)” value ([8]; mice treated by cyclophosphamide, spleen colony assay) was 27.2 ± 3.0 and the “IL-2 (U/ml) ± SD” value [9] was 79.0 ± 8.5 U/ml.
